In patent US20180327354A1, “Unnatural Analogues of Calcitriol and Uses Thereof” (Vidasym, Inc., priority 2009, published 2018):
Entries after “also recorded” stand apart in the source; their conditions may differ. Read-outs that look alike come from different tables or passages of the source.

Tests used:
[1] = tested on: CYP24A1; assay: CYP24A1 expression induction in HL-60 promyelocytic leukemia cells (real-time RT-PCR); assay type: cell-based; conditions: Homo sapiens; HL-60 cells, 24 h, mRNA normalized to GAPDH; Table 3 summary, some values average of 3 or more determinations; read-out: CYP24A1 EC50
Method: (§1) Some compounds were tested in HL-60 promyelocytic leukemia cells and a primary culture of human coronary artery smooth muscle cells (HCASMC) for CYP24A1 induction. It is well documented that CYP24A1 has a VDRE in its promoter region and is a specific target gene of VDR (Meyer et al., 2007, J Biol Chem 282: 22344-22352). […] Compounds also were tested in HCASMC for their effects in inducing VDR. To assess the suitability of a compound for modulating immune responses, compounds were tested in HL-60 for their effects in inducing CD14 expression. To assess the suitability of a compound for treating thrombosis, compounds also were tested in HCASMC for their effects in modulating thrombomodulin and thrombospondin-1.
(§2) Compounds are tested in human HL-60 promyelocytic leukemia cells to assess their potency in inducing the expression of CYP24A1 and CD14. HL-60 cells are cultured in IMDM supplemented with 20% heat-inactivated fetal bovine serum at 37° C. in a humidified 5% CO2-95% air atmosphere. Cells are plated into 6 well plates and treated with test agent for 24 h. Cells are lysed with the addition of 1 mL of Trizol and RNA prepared according to the manufacturer's protocol.
(§3) Real-time reverse transcription-PCR is performed with the forward and reverse PCR primers and 250 nM of the TAQMAN™ probe specifically designed for CYP24A1 or CD14. (A TAQMAN™ probe is comprised of a fluorophore covalently attached to the 5′-end of the oligonucleotide probe and a quencher at the 3′-end.) After the data acquisition, the CYP24A1 or CD14 mRNA expression level is normalized to the GAPDH mRNA level. FIGS. 2A and 2B show the results from a typical CYP24A1 (FIG. 2A) and CD14 (FIG. 2B) expression study.

[2] = tested on: CD14; assay: CD14 expression induction in HL-60 promyelocytic leukemia cells (real-time RT-PCR); assay type: cell-based; conditions: Homo sapiens; HL-60 cells, 24 h, mRNA normalized to GAPDH; Table 3 summary, some values average of 3 or more determinations; read-out: CD14 EC50
Method: as §1, §2, §3

[3] = tested on: normal mice; assay: Hypercalcemic side effect profile and serum PTH in normal mice; assay type: in vivo, Male C57/BL mice; conditions: for dose at which compound starts to raise serum Ca: i.p. dosing once daily for 3 consecutive days
Method: The normal mice model is a convenient and quick way to assess the hypercalcemic side effect profile of compounds. At the same time, data on serum PTH can be collected.
Male C57/BL mice at 18-20 g are dosed with the test agent at 100 al/mouse (concentrations as indicated) i.p. once daily for 3 consecutive days or at 10 ml/kg, p.o. gavage, once daily for 5 days. The animals were harvested 24 h after the last dose by anesthetization with ketamine/xylazine. Blood was collected from the aorta. Serum total calcium was measured using the QuantiChrom Calcium Assay kit and/or the Roche Hitachi 912 Chemistry Analyzer. Serum PTH was measured using a PTH Immunoassay. Vehicle control was 100 l/mouse of 5% EtOH/95% propylene glycol for i.p. dosing or 10 ml/kg of 20% Hydroxypropyl-β-Cyclodextrin for p.o. gavage dosing.
For serum chemistry data, group mean±SEM are presented. Differences between vehicle and compound-treated groups are assessed using a one-way ANOVA followed by a Dunnett's post-hoc test. FIGS. 3A and 3B show the results from a typical p.o. gavage dosing study (n=4-9 per group).

[4] = Maximal absorbance wavelength and extinction coefficient (spectrophotometer scan); assay type: physicochemical; conditions: 100 μM in 50:50 de-ionized water and ethanol; for extinction coefficient: in M-1·cm-1 (unit assumed)
Method: To determine the maximal absorbance wavelength (ODmax) and the extinction coefficients for the compounds, each compound is diluted in a 50:50 solution (by volume) of de-ionized water and ethanol at 100 μM and scanned by a spectrophotometer.

[5] = tested on: CYP24A1; assay: CYP24A1 expression induction in primary culture of human coronary artery smooth muscle cells; assay type: cell-based; conditions: HCASMC, 24 h, Table 4 summary, some values average of 2 or more determinations, read-out: EC50 for CYP24A1 induction
Method: (§4) Compounds were tested in a primary culture of HCASMC to assess their potency in inducing the expression of CYP24A1 and VDR.
(§5) Primary culture of HCASMC was grown in smooth muscle growth medium SmGM-2 containing 5.5 mM glucose, 5% FBS, 50 μg/ml gentamicin, 50 ng/ml amphotericin-B, 5 μg/ml insulin, 2 ng/ml hFGF, and 0.5 ng/ml hEGF at 37° C. in a humidified 5% CO2-95% air. Cells were grown to >80% confluence and used within five passages.
(§6) Cells were plated into 6 well plates and treated with test agent for 24 h. Cells were lysed with the addition of 1 mL of Trizol and RNA prepared according to the manufacturer's protocol.
(§7) Real-time reverse transcription-PCR was performed with the forward and reverse PCR primers and […] of the TAQMAN™ probe specifically designed for CYP24A1 or VDR. (A TAQMAN™ probe is comprised of a fluorophore covalently attached to the 5′-end of the oligonucleotide probe and a quencher at the 3′-end.) After the data acquisition, the CYP24A1 or VDR mRNA expression level was normalized to the GAPDH mRNA level. […] Group mean±STDEV (standard deviation) are presented.

[6] = tested on: VDR; assay: VDR expression induction in primary culture of human coronary artery smooth muscle cells; assay type: cell-based; conditions: HCASMC, 24 h, Table 4 summary, some values average of 2 or more determinations, read-out: EC50 for VDR induction
Method: as §4, §5, §6, §7

[7] = tested on: thrombospondin-1; assay: Thrombospondin-1 protein in human coronary artery smooth muscle cells (Western blot); assay type: cell-based; conditions: HCASMC, 48 h, FIG. 21A
Method: (§8) Human coronary artery smooth muscle cells (HCASM) were incubated with Vida-5 or Vida-11 at different concentrations for 48 h and then were solubilized in 50 al of SDS-PAGE sample buffer. The protein content in each sample was determined by the bicinchoninic acid protein assay. Samples were resolved by SDS-PAGE using a 4-12% NuPAGE gel, and proteins were electrophoretically transferred to polyvinylidene fluoride membrane for Western blotting. The membrane was blocked for 1 h at 25° C. with 5% nonfat dry milk in phosphate buffered saline Tween-20 (PBS-T) and then incubated with a mouse anti-thrombospondin-1 monoclonal antibody (2,000-fold dilution), or a mouse anti-TM monoclonal antibody (2,000-fold dilution) in PBS-T overnight at 4° C.
(§9) The membrane was washed with PBS-T and incubated with a horseradish peroxidase-labeled anti-mouse antibody for 1 h at 25° C. The membrane was then incubated with Amersham ECL Plus Western Blotting Detection Reagents. Specific bands were visualized by the Multiimage II of Alpha Innotech imaging system. Band intensity was quantified using Spot Denso.

[8] = tested on: thrombomodulin; assay: Thrombomodulin protein in human coronary artery smooth muscle cells (Western blot); assay type: cell-based; conditions: HCASMC, 48 h, FIG. 21B
Method: as §8, §9

[9] = tested on: uremic rats; conditions: cited from earlier work
[10] = Slatopolsky et al., 1998, converted from ng/rat

Structure (SMILES) | maximal absorbance wavelength [4] [nm] | extinction coefficient [4] | EC50 [1] [nM] | EC50 [2] [nM] | dose at which compound starts to raise serum Ca [3] [µg/kg] | other results
C[C@@H](OCCC(C)(C)O)C1CCC2/C(=C/C=C3C[C@@H](O)C4(CC4)[C@H](O)C3)CCCC21C (stereo partly drawn) [Vida-1, (4R,8R)-6-((E)-2-((1S,7αS)-1-((R)-1-(3-hydroxy-3-methylbutoxy)ethyl)-7α-methyldihydro-1H-inden-4(2H, 5H, 6H, 7H, 7αH)-ylidene)ethylidene)spiro[2.5]octane-4,8-diol] | 253 | 29550 | 69 | 22 | 0.01 | –
C=C1/C(=C\C=C2/CCC[C@]3(C)[C@@H]([C@H](C)CCCC(C)(C)O)CC[C@@H]23)C[C@@H](O)C[C@@H]1O [calcitriol, 1,25-dihydroxyvitamin D3] | – | – | – | – | – | dose at which compound raises serum Ca [9, 10]: ~0.01 µg/kg; dose at which compound starts to suppress serum PTH [9, 10]: ~0.02 µg/kg; dose at which compound raises serum Ca ([9]; Slatopolsky et al., 1998): 4 ng/rat; dose at which compound starts to suppress serum PTH ([9]; Slatopolsky et al., 1998): 8 ng/rat
C[C@@H](OC[C@H](C)C(C)(C)O)C1CCC2/C(=C/C=C3C[C@@H](O)C4(CC4)[C@H](O)C3)CCCC21C (stereo partly drawn) [Vida-4, (4R,8R)-6-((E)-2-((3αS,7αS)-1-((R)-1-((S)-3-hydroxy-2,3-dimethylbutoxy)ethyl)-7α-methyldihydro-1H-inden-4(2H, 5H, 6H, 7H, 7αH)-ylidene)ethylidene) spiro[2.5]octane-4,8-diol] | 253 | 23610 | 190 | 31 | – | fold less potent in raising serum Ca than Vida-1 ([3]; i.p. dosing, FIG. 4): at least 100 fold
C[C@@H](CSc1cccc(C(C)(C)O)c1)C1CCC2/C(=C/C=C3C[C@@H](O)C4(CC4)[C@H](O)C3)CCCC21C (stereo partly drawn) [Vida-58, (4R,8R)-6-((E)-2-(1-((R)-1-(3-(2-hydroxypropan-2-yl)phenylthio)propan-2-yl)-7α-methyldihydro-1H-inden-4(2H,5H,6H, 7H, 7αH)-ylidene)ethylidene)spiro[2.5]octane-4,8-diol] | – | – | 49 | 125 | – | –

The next lines start with results.

maximal absorbance wavelength [4] [nm] | extinction coefficient [4] | Structure (SMILES) | EC50 [1] [nM] | EC50 [2] [nM] | dose at which compound starts to raise serum Ca [3] [µg/kg] | other results
253 | 23340 | CCC(O)(CC)CCCO[C@H](C)C1CCC2/C(=C/C=C3C[C@@H](O)C4(CC4)[C@H](O)C3)CCCC21C (stereo partly drawn) [Vida-20, (4R,8R)-6-((E)-2-((1S,7αS)-1-((R)-1-(4-ethyl-4-hydroxyhexyloxy)ethyl)-7α-methyldihydro-1H-inden-4(2H, 5H, 6H, 7H, 7αH)-ylidene)ethylidene)spiro[2.5]octane-4,8-diol] | 6.7 | 1.6 | 1 | –
253 | 58710 | C=C1[C@H](O)CC(=C/C=C2\CCCC3(C)C2CCC3[C@@H](C)OCCCC(O)(CC)CC)C[C@H]1O (stereo partly drawn) [Vida-21, (1R,3R)-5-((E)-2-((1S,7αS)-1-((R)-1-(4-ethyl-4-hydroxyhexyloxy)ethyl)-7α-methyldihydro-1H-inden-4(2H, 5H, 6H, 7H, 7αH)-ylidene)ethylidene)-2-methylenecyclohexane-1,3-diol] | 0.8 | 1.1 | 0.1 | EC50 [5]: 1.8 nM; EC50 [6]: 2.5 nM; thrombospondin-1 protein expression [7]: suppress; also recorded: significantly reduced; thrombomodulin protein expression [8]: induce; also recorded: increased
253 | 49670 | C[C@@H](COc1cccc(C(C)(C)O)c1)[C@H]1CC[C@H]2/C(=C/C=C3C[C@@H](O)C4(CC4)[C@H](O)C3)CCC[C@]12C [Vida-57, (4R,8R)-6-((E)-2-(1-((R)-1-(3-(2-hydroxypropan-2-yl)phenoxy)propan-2-yl)-7-methyldihydro-1H-inden-4(2H,5H,6H, 7H,7αH)-ylidene)ethylidene)spiro[2.5]octane-4,8-diol] | 36 | 21 | – | –
254 | 26850 | C=C1[C@H](O)CC(=C/C=C2\CCC[C@]3(C)[C@@H]([C@H](C)COc4ccccc4)CC[C@@H]23)C[C@H]1O [Vida-36, (1R,3R)-5-((E)-2-((1R,3αS,7αR)-7α-methyl-1-((S)-1-phenoxypropan-2-yl)dihydro-1H-inden-4(2H, 5H, 6H, 7H, 7αH)-ylidene)ethylidene)-2-methylenecyclohexane-1,3-diol] | 249000 | 34000 | – | –
254 | 43580 | C=C1[C@H](O)CC(=C/C=C2\CCCC3(C)C2CCC3[C@@H](C)CSc2cccc(C(C)(C)O)c2)C[C@H]1O (stereo partly drawn) [Vida-43, (1R,3R)-5-((E)-2-(1-((R)-1-(3-(2-hydroxypropan-2-yl)phenylthio)propan-2-yl)-7α-methyldihydro-1H-inden-4(2H, 5H, 6H, 7H, 7αH)-ylidene)ethylidene)-2-methylenecyclohexane-1,3-diol] | 6.9 | 63 | – | –
254 | 25720 | C=C1[C@H](O)CC(=C/C=C2\CCCC3(C)C2CCC3[C@@H](C)COc2cccc(C(C)(C)O)c2)C[C@H]1O (stereo partly drawn) [Vida-37, (1R,3R)-5-((E)-2-(1-((R)-1-(3-(2-hydroxypropan-2-yl)phenoxy)propan-2-yl)-7α-methyldihydro-1H-inden-4(2H, 5H, 6H, 7H, 7αH)-ylidene)ethylidene)-2-methylenecyclohexane-1,3-diol] | 6.1 | 12 | 10 | –
